Experimental data: patent US20130260391A1, “Method Of Determining The Protease Cathepsin B In A Biological Sample” (priority 2010, published 2013)

Biological target: T1, cathepsin B (Homo sapiens, UniProt P07858)
T1 construct: Conversion of procathepsin B in the sample into the active form of cathepsin B; from tissue; host or cells: serum sample
Assay: enzyme assay of cathepsin B activity in deinhibited serum sample with substrate Z-Arg-Arg-AFC (fluorescence)
Assay type: biochemical
Conditions: inhibitor added to the enzyme assay after withdrawing the protease inhibitor; compared with the signal before withdrawing the inhibitor
Experimental: 6) Measuring the activity of cathepsin B in the sample
To 110 μl of the serum samples, which have been treated as described, in 0.5 ml reaction vessels 110 μl of a solution of the substrate (70 μM Z-Arg-Arg-AFC) are added, the pH-value of which is set at pH=6 by phosphate buffer and which contains 5 mM EDTA and 10 mM DTE. After mixing the samples are incubated for 120 min at 37° C. Subsequently the reaction vessels are cooled down with ice, centrifuged for a short time so as to bring the water condensed at the cap of the reaction vessel back to the solution and then the fluorescence emission is recorded, either on a microtiter plate by means of a fluorescence reader or in a cuvette by means of a fluorimeter. The excitation wavelength is at about 400 nm, and a suitable detection wavelength is at about 505 nm.
Thus evidence is established that the value measured in the enzyme assay after withdrawing the inhibitor relates to cathepsin B which is set free.

Structure (SMILES)	measurement signal of the enzyme assay after addition of the inhibitor
CCCNC(=O)[C@H]1O[C@@H]1C(=O)N[C@H](C(=O)N1CCC[C@H]1C(=O)O)[C@@H](C)CC [CA-074]	the same as the measuring signal, which is obtained, when the enzyme assay is carried out before withdrawing the inhibitor
CC(C)C[C@H](NC(=O)[C@H]1O[C@@H]1C(=O)O)C(=O)NCCCCN=C(N)N [E 64]	the same as the measuring signal, which is obtained, when the enzyme assay is carried out before withdrawing the inhibitor
